Reference: ChEMBL document CHEMBL1201862, “PubChem BioAssay data set” (2004)
Activity calls are given as the source filed them.

Legend:
fMet-Leu-Phe receptor = target: T1, fMet-Leu-Phe receptor (Homo sapiens, UniProt P21462); experiment: FPR ligands, dose response (AID 519); format: functional
T1 sequence (P21462 whole entry): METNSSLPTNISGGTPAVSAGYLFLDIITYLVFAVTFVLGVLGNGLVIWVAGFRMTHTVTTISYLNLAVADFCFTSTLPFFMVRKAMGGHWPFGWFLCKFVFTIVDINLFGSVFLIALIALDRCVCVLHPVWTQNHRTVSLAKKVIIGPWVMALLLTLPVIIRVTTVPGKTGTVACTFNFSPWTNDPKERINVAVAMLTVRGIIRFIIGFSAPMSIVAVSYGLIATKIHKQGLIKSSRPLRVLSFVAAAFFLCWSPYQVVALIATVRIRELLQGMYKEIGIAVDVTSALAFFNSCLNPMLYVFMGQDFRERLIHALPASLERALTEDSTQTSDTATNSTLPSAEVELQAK

[1] = target: T2, Oxysterols receptor LXR-beta (Homo sapiens, UniProt P55055); format: functional, cell-based;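 note: agonist activity at LXR measured by a cell-based luminescence readout across a dose range, run as a counterscreen for daf-12 agonists; HEK293 cells with Gal4-LXR fusion and GAL4-driven luciferase reporter; potency for activation of Gal4-LXR reporter so compounds are agonists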
T2 sequence (P55055 whole entry): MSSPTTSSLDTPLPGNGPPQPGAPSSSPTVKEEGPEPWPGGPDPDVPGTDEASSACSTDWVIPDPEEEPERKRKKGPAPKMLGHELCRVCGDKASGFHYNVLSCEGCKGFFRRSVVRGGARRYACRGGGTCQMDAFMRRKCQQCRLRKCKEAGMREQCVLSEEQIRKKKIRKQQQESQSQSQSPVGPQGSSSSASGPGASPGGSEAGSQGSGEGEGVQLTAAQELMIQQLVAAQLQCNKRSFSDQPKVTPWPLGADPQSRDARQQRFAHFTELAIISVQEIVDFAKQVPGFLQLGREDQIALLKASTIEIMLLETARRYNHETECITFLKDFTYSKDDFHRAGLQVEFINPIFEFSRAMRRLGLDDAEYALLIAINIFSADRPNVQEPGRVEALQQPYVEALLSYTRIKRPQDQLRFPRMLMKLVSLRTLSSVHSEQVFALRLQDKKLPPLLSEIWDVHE

HeLa = experiment: HeLa cell cytotoxicity, dose response, cytotoxicity control, ATP luminescence, cherry-pick samples (AID 687004); format: functional, cell-based; conditions: Homo sapiens
Nonstructural protein 1 = Nonstructural protein 1 (Influenza A virus, UniProt Q194T2); format: functional, Influenza A virus (A/California/07/2009(H1N1))
Sequence of Nonstructural protein 1 (Q194T2 whole entry): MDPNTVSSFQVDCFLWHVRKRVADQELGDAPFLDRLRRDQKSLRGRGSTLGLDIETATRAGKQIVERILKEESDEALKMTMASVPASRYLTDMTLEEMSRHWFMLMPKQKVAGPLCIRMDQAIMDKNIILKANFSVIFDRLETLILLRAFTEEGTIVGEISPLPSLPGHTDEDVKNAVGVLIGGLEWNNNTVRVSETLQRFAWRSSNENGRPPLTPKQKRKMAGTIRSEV

Streptokinase A = target: T3, Streptokinase A (Streptococcus pyogenes serotype M1, UniProt P10520); experiment: S. pyogenes streptokinase expression inhibitors, potency, dose response, plasminogen activation absorbance, OD405 (AID 1914); format: functional, Streptococcus pyogenes M1 GAS;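 note: secreted streptokinase activity via plasminogen activation per viability signal from cell pellet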
T3 sequence (P10520 whole entry): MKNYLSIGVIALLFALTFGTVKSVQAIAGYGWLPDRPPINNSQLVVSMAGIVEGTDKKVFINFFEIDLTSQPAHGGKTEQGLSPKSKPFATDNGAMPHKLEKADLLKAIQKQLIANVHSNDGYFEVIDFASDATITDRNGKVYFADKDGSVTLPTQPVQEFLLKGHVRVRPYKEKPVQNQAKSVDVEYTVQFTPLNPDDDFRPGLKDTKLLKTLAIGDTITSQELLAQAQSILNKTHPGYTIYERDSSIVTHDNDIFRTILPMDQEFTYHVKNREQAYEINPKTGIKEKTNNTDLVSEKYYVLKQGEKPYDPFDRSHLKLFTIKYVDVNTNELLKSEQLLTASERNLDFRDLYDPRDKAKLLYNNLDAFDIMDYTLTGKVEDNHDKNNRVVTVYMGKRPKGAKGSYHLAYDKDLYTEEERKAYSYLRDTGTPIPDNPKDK

[2] = target: T4, RNA-binding protein pos-1 (Caenorhabditis elegans, UniProt G5EF15); experiment: inhibitors of POS-1/mex-3 RNA binding, dose response, biochemical, fluorescence polarization (AID 1964);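 note: purified POS-1 fused to maltose binding protein made in E. coli; potency of compounds blocking POS-1 binding to fluorescent RNA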
T4 sequence (G5EF15 whole entry): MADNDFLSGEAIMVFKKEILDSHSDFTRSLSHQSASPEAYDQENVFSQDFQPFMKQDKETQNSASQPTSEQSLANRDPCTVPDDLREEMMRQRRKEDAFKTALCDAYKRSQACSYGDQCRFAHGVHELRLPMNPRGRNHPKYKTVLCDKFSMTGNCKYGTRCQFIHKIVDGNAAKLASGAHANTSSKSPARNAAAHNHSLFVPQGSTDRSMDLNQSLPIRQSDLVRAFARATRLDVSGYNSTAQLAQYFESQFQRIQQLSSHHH

Streptococcus = experiment: Group A Streptococcus viability loss, dose response, counter-screen for streptokinase expression inhibitor project, luminescence, BacTiterGlo (AID 1915); format: functional, organism-based; conditions: Streptococcus;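 note: potency for reduction of bacterial viability or growth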
[3] = tested on: Streptococcus sp. 'group A'; experiment: growth inhibition of control SK(-) GAS strain, dose response, counter-screen for streptokinase expression inhibitor project, luminescence, kanamycin, BacTiterGlo, confirmation (AID 1900); format: functional, organism-based; conditions: Streptococcus sp. 'group A'
[4] = target: T5, Zinc finger protein mex-5 (Caenorhabditis elegans, UniProt Q9XUB2); experiment: MEX-5/TCR-2 RNA interaction inhibitors, dose response, biochemical, C. elegans, fluorescence polarization (AID 1960)
T5 sequence (Q9XUB2 whole entry): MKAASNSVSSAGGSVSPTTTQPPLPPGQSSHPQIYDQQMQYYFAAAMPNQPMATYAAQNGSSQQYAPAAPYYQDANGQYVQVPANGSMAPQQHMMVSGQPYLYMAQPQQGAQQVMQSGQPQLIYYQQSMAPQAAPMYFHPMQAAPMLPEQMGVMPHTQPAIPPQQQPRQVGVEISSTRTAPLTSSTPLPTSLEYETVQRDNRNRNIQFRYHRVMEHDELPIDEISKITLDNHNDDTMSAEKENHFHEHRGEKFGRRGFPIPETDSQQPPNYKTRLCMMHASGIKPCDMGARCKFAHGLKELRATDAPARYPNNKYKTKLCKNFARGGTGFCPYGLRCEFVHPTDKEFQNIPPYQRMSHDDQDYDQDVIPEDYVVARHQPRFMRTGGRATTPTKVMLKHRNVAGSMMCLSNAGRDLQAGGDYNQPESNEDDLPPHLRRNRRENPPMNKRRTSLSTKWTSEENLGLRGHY

H9c2 = experiment: cells; format: functional, cell-based; conditions: Rattus norvegicus, H9c2, Myocardium;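 note: confirmatory concentration-response retest of ultra-high-throughput screening hits for modulation of myocardial damage; cell death induced by hydrogen peroxide oxidative stress; compound pretreatment for 60 min then peroxide exposure for 2 h; potency is for protecting the cells against peroxide damage rather than for killing them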
Caspase-6 = target: T6, Caspase-6 (Homo sapiens, UniProt P55212); experiment: human caspase-6 inhibitors, dose response, biochemical, VEID-R110 fluorescence, cherry-pick (AID 720632)
T6 sequence (P55212 whole entry): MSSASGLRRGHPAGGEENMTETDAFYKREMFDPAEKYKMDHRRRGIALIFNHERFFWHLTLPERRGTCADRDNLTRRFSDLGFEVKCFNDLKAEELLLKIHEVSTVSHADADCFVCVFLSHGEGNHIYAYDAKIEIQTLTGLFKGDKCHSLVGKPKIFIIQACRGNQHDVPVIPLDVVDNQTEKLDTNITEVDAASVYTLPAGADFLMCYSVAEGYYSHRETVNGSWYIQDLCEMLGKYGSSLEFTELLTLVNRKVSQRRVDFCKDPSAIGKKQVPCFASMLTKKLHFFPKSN

[5] = T. cruzi growth inhibition in host cells, dose response, cell-based, plate reader, dry powder, set 2 (AID 652275); format: functional

Q: For `COc1ccc(C)cc1NC(=O)C1CCCCC1C(=O)O` (centres undefined), which Ki (fMet-Leu-Phe receptor) is on record?
A: Its Ki is > 66.7 µM (inactive).

Q: Which EC50 [1] does the source give for `Cc1cc2ncc(-c3ccccc3)nc2cc1C` [AG1295] here?
A: Its EC50 is > 67.5 µM (inactive).

Q: For `CN1C(=O)c2cc(NC(=O)NC3CCCC3)ccc2OC[C@H]2O[C@@H](CC(=O)NC3CCC3)CC[C@@H]21`, which AC50 (HeLa) is on record?
A: Its AC50 is 25.9 µM (active).

Q: For `CCN(CC)c1ccc(/C=N/C(C#N)=C(\N)C#N)cc1`, which IC50 (Nonstructural protein 1) is on record?
A: The IC50 was > 100 µM (active).

Q: And the EC50 (Streptokinase A)?
A: The EC50 was > 150 µM (not active).

Q: And the EC50 [2]?
A: The EC50 was 281 µM (active).

Q: What about the EC50 (Streptococcus) of the same molecule?
A: Its EC50 is > 150 µM (not active).

Q: What about the Ki (fMet-Leu-Phe receptor) of the same molecule?
A: Its Ki is > 66.7 µM (inactive).

Q: And the EC50 [3]?
A: Its EC50 is > 150 µM (not active).

Q: And the EC50 [4]?
A: Its EC50 is 114 µM (inconclusive).

Q: For `CCOC(=O)C1=C(COC(=O)c2ccc([N+](=O)[O-])o2)NC(=O)NC1C` (centres undefined), which IC50 (H9c2) is on record?
A: The IC50 was > 79 µM (inactive).

Q: What about the AC50 (Caspase-6) of the same molecule?
A: Its AC50 is 30 µM (active).

Q: With `C=CCN1C(=O)[C@@H](CC(=O)N2CCSCC2)[C@]2(C(=O)OC)CCCCC=C12` as the molecule, how does the EC50 [1] read?
A: Its EC50 is > 67.5 µM (inactive).

Q: Which AC50 [5] does the source give for `C[C@H]1CN([C@@H](C)CO)C(=O)c2cccc(NC(=O)c3ccncc3)c2O[C@@H]1CN(C)Cc1cc(Cl)ccc1Cl` here?
A: Its AC50 is 0.0573 µM (active).
